# Laboratory results reported in patent US7998965B2, “Glutamate aggrecanase inhibitors” (Wyeth LLC, priority 2005, dated 2011).
# Read-outs that look alike come from different tables or passages of the source.
# What was measured:
# [1] = biological target: T1, purified recombinant human Aggrecanase-2 (Ag2t-Phe628-Strep) (Homo sapiens, UniProt Q9UNA0); assay: In vitro fluorescence screen for Aggrecanase-2 inhibitors; assay type: biochemical; conditions: read-out: Agg 2 IC50
# T1 construct: the form used is denoted as Ag2t-Phe628-Strep (MW=41,737)
# T1 sequence (Q9UNA0 262-628): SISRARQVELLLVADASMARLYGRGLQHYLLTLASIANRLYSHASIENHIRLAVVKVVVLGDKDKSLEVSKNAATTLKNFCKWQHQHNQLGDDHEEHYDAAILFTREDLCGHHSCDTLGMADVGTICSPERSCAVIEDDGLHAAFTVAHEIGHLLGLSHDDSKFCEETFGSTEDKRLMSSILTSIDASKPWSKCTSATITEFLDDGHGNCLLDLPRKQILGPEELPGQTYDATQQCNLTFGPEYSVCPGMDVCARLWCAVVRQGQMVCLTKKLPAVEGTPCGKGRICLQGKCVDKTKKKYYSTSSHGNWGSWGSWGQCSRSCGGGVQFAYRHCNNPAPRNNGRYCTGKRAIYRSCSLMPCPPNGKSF
# [2] = biological target: T2, purified recombinant human Aggrecanase-1 (rAgg1) (Homo sapiens, UniProt O75173); assay: In vitro fluorescence screen for Aggrecanase-1 inhibitors; assay type: biochemical; conditions: read-out: Agg1 IC50
# T2 sequence (O75173 213-837): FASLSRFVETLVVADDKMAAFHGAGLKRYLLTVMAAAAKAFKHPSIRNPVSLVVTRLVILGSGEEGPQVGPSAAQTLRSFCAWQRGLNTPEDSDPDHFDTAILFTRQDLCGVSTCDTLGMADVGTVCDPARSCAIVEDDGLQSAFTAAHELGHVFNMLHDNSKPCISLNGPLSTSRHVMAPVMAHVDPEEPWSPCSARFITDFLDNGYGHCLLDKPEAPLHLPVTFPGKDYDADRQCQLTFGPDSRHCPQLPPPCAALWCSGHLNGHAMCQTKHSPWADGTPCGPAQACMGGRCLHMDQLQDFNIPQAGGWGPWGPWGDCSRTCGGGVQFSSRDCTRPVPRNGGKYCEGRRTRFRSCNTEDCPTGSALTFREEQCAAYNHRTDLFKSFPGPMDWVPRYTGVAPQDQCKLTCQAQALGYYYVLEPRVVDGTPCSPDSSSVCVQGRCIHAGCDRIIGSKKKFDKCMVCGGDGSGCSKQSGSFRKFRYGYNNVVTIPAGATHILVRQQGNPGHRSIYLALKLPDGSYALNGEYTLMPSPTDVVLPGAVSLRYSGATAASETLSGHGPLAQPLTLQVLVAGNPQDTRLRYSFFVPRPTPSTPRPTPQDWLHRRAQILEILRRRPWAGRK
SMILES,IC50 ([1]; Table 2) [nM],IC50 ([2]; Table 2) [nM],IC50 ([1]; Table 3) [nM],IC50 ([2]; Table 3) [nM]
"O=C(O)CC[C@H](NC(=O)c1ccc(C#CC2(O)c3ccccc3-c3ccccc32)cc1)C(=O)NCc1ccccc1 [Example 12H, N-benzyl-N^2-{4-[(9-hydroxy-9H-fluoren-9-yl)ethynyl]benzoyl}-L-α-glutamine]",1630,1200,–,–
"O=C(O)CC[C@H](NC(=O)c1ccc(/C=C/C(=O)c2ccccc2)cc1)C(=O)NCc1ccccc1 [Example 12I, N-benzyl-N^2-{4-[(1E)-3-oxo-3-phenylprop-1-en-1-yl]benzoyl}-L-α-glutamine]",> 20000,> 25000,–,–
"Nc1cccc(C#Cc2ccc(C(=O)N[C@@H](CCC(=O)O)C(=O)NCc3ccccc3)cc2)c1 [Example 12J, N^2-{4-[(3-aminophenyl)ethynyl]benzoyl}-N-benzyl-L-α-glutamine]",~22000,~8000,–,–
"O=C(O)CC[C@H](NC(=O)c1ccc(C#CC(O)(c2ccccc2)c2ccccc2)cc1)C(=O)NCc1ccccc1 [Example 12K, N-benzyl-N^2-[4-(3-hydroxy-3,3-diphenylprop-1-yn-1-yl)benzoyl]-L-α-glutamine]",> 22000,~25000,–,–
"COc1cccc(C#Cc2ccc(C(=O)N[C@@H](CCC(=O)O)C(=O)NCc3ccccc3)cc2)c1 [Example 12L, N-benzyl-N^2-{4-[(3-methoxyphenyl)ethynyl]benzoyl}-L-α-glutamine]",> 22000,~22000,–,–
"CCc1cccc(OCc2ccc(-c3ccc(C(=O)N[C@@H](CCC(=O)O)C(=O)NC(C)(C)Cc4ccccc4)cc3)cc2)c1 [Example 15AA, N-(1,1-dimethyl-2-phenylethyl)-N^2-({4′-[(3-ethylphenoxy)methyl]biphenyl-4-yl}carbonyl)-L-α-glutamine]",327,44,–,–
"COc1cccc(OCc2ccc(-c3ccc(C(=O)N[C@@H](CCC(=O)O)C(=O)NC(C)(C)Cc4ccccc4)cc3)cc2)c1 [Example 15BB, N-(1,1-dimethyl-2-phenylethyl)-N^2-({4′-[(3-methoxyphenoxy)methyl]biphenyl-4-yl}carbonyl)-L-α-glutamine]",527,53,–,–
"O=C(O)CC[C@H](NC(=O)c1ccc(-c2ccc(OCc3cccc(F)c3)cc2)cc1)C(=O)NCc1ccccc1 [Example 15I, N-benzyl-N^2-({4′-[(3-fluorobenzyl)oxy]biphenyl-4-yl}carbonyl)-L-α-glutamine]",1590,430,–,–
"O=C(O)CC[C@H](NC(=O)c1ccc(-c2ccc(OCc3ccccc3)cc2)cc1)C(=O)NCc1ccccc1 [Example 15J, N-benzyl-N^2-{[4′-(benzyloxy)biphenyl-4-yl]carbonyl}-L-α-glutamine]",~3130,510,–,–
"COc1cc(CNC(=O)[C@H](CCC(=O)O)NC(=O)c2ccc(-c3cccc(OCc4ccccc4)c3)cc2)cc(OC)c1OC [Example 15K, N^2-{[3′-(benzyloxy)biphenyl-4-yl]carbonyl}-N-(3,4,5-trimethoxybenzyl)-L-α-glutamine]",–,–,379,< 30
"COc1cc(COc2cccc(-c3ccc(C(=O)N[C@@H](CCC(=O)O)C(=O)NCc4cc(OC)c(OC)c(OC)c4)cc3)c2)cc(OC)c1 [Example 15L, N^2-({3′-[(3,5-dimethoxybenzyl)oxy]biphenyl-4-yl}carbonyl)-N-(3,4,5-trimethoxybenzyl)-L-α-glutamine]",–,–,413,47
"COc1cccc(COc2cccc(-c3ccc(C(=O)N[C@@H](CCC(=O)O)C(=O)NCc4cc(OC)c(OC)c(OC)c4)cc3)c2)c1 [Example 15M, N^2-({3′-[(3-methoxybenzyl)oxy]biphenyl-4-yl}carbonyl)-N-(3,4,5-trimethoxybenzyl)-L-α-glutamine]",–,–,789,< 30
"COc1cc(COc2ccc(-c3ccc(C(=O)N[C@@H](CCC(=O)O)C(=O)NC(C)(C)Cc4ccc(F)cc4)cc3)cc2)cc(OC)c1 [Example 15N, N^2-({4′-[(3,5-dimethoxybenzyl)oxy]biphenyl-4-yl}carbonyl)-N-[2-(4-fluorophenyl)-1,1-dimethylethyl]-L-α-glutamine]",–,–,103,91
